Data set [1] is described as follows: log P by HPLC on a reversed-phase column (C 18), EEC Directive 79/831 Annex V.A8. Format: physicochemical. The following applies: HPLC on reversed-phase column (C 18), 40° C., 0.1% aqueous formic acid and acetonitrile, linear gradient 10% to 90% acetonitrile. An outline of the steps:
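Compounds are eluted at 40° C using 0.1% aqueous formic acid and acetonitrile in a linear gradient from 10% to 90% acetonitrile. Unbranched alkan-2-ones bearing 3 to 16 carbons with known log P serve as calibrants. Each log P is interpolated linearly from retention times of the two bracketing alkanones.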

The test system of the next data set is Botrytis cinerea. The experiment in a line: In vivo preventive test on Botrytis cinerea (grey mould). The following applies: gherkin plants, 4 to 5 days after contamination. The protocol:
In Vivo Preventive Test on Botrytis cinerea (Grey Mould) […] Gherkin plants (“Vert petit de Paris” variety), sown in starter cups on a 50/50 peat soil pozzolana substrate and grown at 24° C., are treated at the Z11 cotyledon stage by spraying with the active ingredient prepared as described above. Plants, used as controls, are treated with the mixture of acetone/tween/DMSO/water not containing the active material. After 24 hours, the plants are contaminated by spraying the cotyledons with an aqueous suspension of cryopreserved Botrytis cinerea spores (50 000 spores per mL). The spores are suspended in a nutrient solution composed of 10 g/L of PDB, 50 g/L of D-Fructose, 2 g/L of NH4NO3 and 1 g/L of KH2PO4. The contaminated gherkin plants are incubated at 17° C. and at 90% relative humidity. Grading (% of efficacy) is carried out 4 to 5 days after the contamination, in comparison with the control plants.

The next data set relates to Pyrenophora teres. Put plainly: In vivo preventive test on Pyrenophora teres (barley). Particulars: barley plants, 14 days after contamination. The protocol:
In Vivo Preventive Test on Pyrenophora teres (Barley) […] Barley plants (“Plaisant” variety), sown in starter cups on a 50/50 peat soil pozzolana substrate and grown at 22° C., are treated at the 1 leaf stage (10 cm height) by spraying with the active ingredient prepared as described above. Plants, used as controls, are treated with the mixture of acetone/tween/DMSO/water not containing the active material. After 24 hours, the plants are contaminated by spraying the leaves with an aqueous suspension of Pyrenophora teres spores (12 000 spores per mL). The spores are collected from a 12-day-old culture. […] Grading (% of efficacy) is carried out 14 days after the contamination, in comparison with the control plants.

In another data set the test system is Puccinia recondita. The experiment in a line: In vivo preventive test on Puccinia recondita (brown rust on wheat). Particulars: wheat plants, 12 days after contamination. An outline of the steps: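 Wheat plants ("Scipion") at 1-leaf stage, grown at 22° C, were sprayed with compound, then inoculated 24 h later with Puccinia recondita spores (100 000 spores per mL). Efficacy (%) graded 12 days after inoculation relative to solvent-treated controls.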

The next data set deals with Septoria tritici. The experiment in a line: In vivo preventive test on Septoria tritici (wheat). The following applies: wheat plants, 24 days after contamination. An outline of the steps: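 Scipion wheat grown at 22° C, sprayed at 1-leaf stage (10 cm); controls received acetone/tween/DMSO/water without active. Inoculated 24 h later with S. tritici spores (500 000/mL), held 72 h at 18° C, 100% RH, then 21 days at 90% RH. % efficacy vs controls scored 24 days post-inoculation.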

In another data set the test system is Sphaerotheca fuliginea. The experiment in a line: In vivo preventive test on Sphaerotheca fuliginea (powdery mildew on cucurbits). Particulars: gherkin plants, 12 days after contamination. The method, boiled down: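 Gherkin plants ("Vert petit de Paris") grown at 24 °C were sprayed at cotyledon stage Z11; controls received acetone/tween/DMSO/water without active. Inoculation 24 h later by spraying cotyledons with 100 000 spores/mL. Efficacy (%) graded 12 days post-contamination versus controls.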

The next data set relates to Uromyces appendiculatus. Put plainly: In vivo preventive test on Uromyces appendiculatus (bean rust). The following applies: bean plants, 11 days after contamination. The method, boiled down: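 Saxa bean plants at 2-leaf stage, grown at 24° C., sprayed preventively with compound; 24 h later inoculated with U. appendiculatus spores (150 000 spores per mL). Percent efficacy graded 11 days after inoculation versus solvent-treated controls.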

In the next data set the test system is Alternaria brassicae. Put plainly: In vivo preventive test on Alternaria brassicae (leaf spot on radish). The following applies: 500 ppm of active ingredient; radish plants; 6 days after contamination. The protocol:
In Vivo Preventive Test on Alternaria brassicae (Leaf Spot on Radish) […] Radish plants (“Pernod Clair” variety), sown in starter cups on a 50/50 peat soil pozzolana substrate and grown at 17° C., are treated at the cotyledon stage by spraying with the active ingredient prepared as described above. Plants, used as controls, are treated with the mixture of acetone/tween/DMSO/water not containing the active material. After 24 hours, the plants are contaminated by spraying the cotyledons with an aqueous suspension of Alternaria brassicae spores (50 000 spores per mL). The spores are collected from a 15-day-old culture. The contaminated radish plants are incubated at 20° C. and at 100% relative humidity. Grading (% of efficacy) is carried out 6 days after the contamination, in comparison with the control plants.

Structures are written as SMILES.

Take `Cn1nc(C(F)F)c(C(=O)N(Cc2cc(-c3ccco3)ccc2Cl)C2CC2)c1F` [I.34]: the logP (as a rule, the decadic logarithm of the partition coefficient of the neutral form, usually between octanol and water) in data set [1] is 3.81. For the same compound, the Efficacy came out at 99% in the data set with Botrytis cinerea (100 ppm of active ingredient) and 81% with Pyrenophora teres (100 ppm of active ingredient).
As to `Cn1nc(C(F)F)c(C(=O)N(Cc2ccccc2-c2ccsc2Cl)C2CC2)c1F` [I.138], the logP in data set [1] was 3.92. The Efficacy in the data set with Botrytis cinerea (500 ppm of active ingredient) is 100%; in the data set with Pyrenophora teres (500 ppm of active ingredient), 79%; in the data set on Puccinia recondita (500 ppm of active ingredient), 94%; in the data set with Septoria tritici (500 ppm of active ingredient), 100%; in the data set with Sphaerotheca fuliginea (500 ppm of active ingredient), 100%; in the data set with Uromyces appendiculatus (500 ppm of active ingredient), 100%.
Compound `Cn1nc(C(F)F)c(C(=O)N(Cc2ccc(Cl)cc2-c2csc3ccccc23)C2CC2)c1F` [I.159] yielded a logP in data set [1] of 4.92. Moreover, the Efficacy in the data set on Botrytis cinerea (500 ppm of active ingredient) turned out to be 100%; in the data set on Pyrenophora teres (100 ppm of active ingredient) it was 75%; in the data set with Septoria tritici (500 ppm of active ingredient), 88%; with Sphaerotheca fuliginea (500 ppm of active ingredient), 100%; in the data set with Uromyces appendiculatus (500 ppm of active ingredient) it was 84%.
`Cn1nc(C(F)F)c(C(=O)N(Cc2cc(-c3ccc(Cl)s3)ccc2Cl)C2CC2)c1F` [I.143]: in data set [1], the logP came out at 4.83. For the same compound, the Efficacy with Botrytis cinerea (500 ppm of active ingredient) came out at 98%; with Pyrenophora teres (500 ppm of active ingredient), 79%; with Puccinia recondita (500 ppm of active ingredient) it was 88%; in the data set on Septoria tritici (500 ppm of active ingredient) it was 100%; in the data set on Sphaerotheca fuliginea (500 ppm of active ingredient) it was 100%; with Uromyces appendiculatus (100 ppm of active ingredient), 93%.
In the case of `COc1ccsc1-c1ccccc1CN(C(=O)c1c(C(F)F)nn(C)c1F)C1CC1` [I.120], the logP in data set [1] is 3.52. Besides, the Efficacy in the data set on Pyrenophora teres (500 ppm of active ingredient) is 79%; in the data set on Puccinia recondita (500 ppm of active ingredient) it was 100%; in the data set with Septoria tritici (500 ppm of active ingredient) it was 80%; in the data set on Sphaerotheca fuliginea (500 ppm of active ingredient) it was 100%; in the data set on Uromyces appendiculatus (500 ppm of active ingredient), 100%.
As for `Cn1cc(C(=O)N(Cc2ccccc2-c2ccc(Cl)s2)C2CC2)c(C(F)F)n1` [I.140], the logP in data set [1] came to 3.87. In addition, the Efficacy in the data set with Alternaria brassicae came to 90%; in the data set with Septoria tritici (500 ppm of active ingredient), 96%; with Uromyces appendiculatus (500 ppm of active ingredient), 73%.
In the case of `Cn1nc(C(F)F)c(C(=O)N(Cc2cc(F)ccc2-c2ccoc2)C2CC2)c1F` [I.27], the logP in data set [1] is reported as 3.33. Further, the Efficacy stood at 93% in the data set on Pyrenophora teres (500 ppm of active ingredient); 100% in the data set with Puccinia recondita (500 ppm of active ingredient); 80% in the data set on Septoria tritici (500 ppm of active ingredient); 100% in the data set with Sphaerotheca fuliginea (500 ppm of active ingredient); 100% with Uromyces appendiculatus (500 ppm of active ingredient).
For `Cn1nc(C(F)F)c(C(=S)N(Cc2ccccc2-c2ccsc2)C2CC2)c1F` [I.73], the logP in data set [1] is given as 4.21. Also, the Efficacy in the data set on Botrytis cinerea (500 ppm of active ingredient) was found to be 100%; in the data set on Pyrenophora teres (500 ppm of active ingredient), 71%; in the data set on Puccinia recondita (500 ppm of active ingredient), 100%; with Sphaerotheca fuliginea (500 ppm of active ingredient) it was 100%; with Uromyces appendiculatus (500 ppm of active ingredient), 100%.
With `Cn1nc(C(F)F)c(C(=O)N(Cc2cc(F)ccc2C2(C)CO2)C2CC2)c1F` (stereo not drawn) [I.7], the lipophilicity (logP) in data set [1] amounted to 2.86. The Efficacy with Pyrenophora teres (100 ppm of active ingredient) was 97%; in the data set on Puccinia recondita (100 ppm of active ingredient) it was 100%; with Septoria tritici (100 ppm of active ingredient), 100%; in the data set with Sphaerotheca fuliginea (100 ppm of active ingredient), 94%; in the data set with Uromyces appendiculatus (100 ppm of active ingredient), 100%.
The compound `Cc1csc(-c2ccc(Cl)cc2CN(C(=O)c2c(C(F)F)nn(C)c2F)C2CC2)c1` [I.103] yielded a log partition coefficient (logP) in data set [1] of 4.51. In addition, the Efficacy in the data set with Botrytis cinerea (500 ppm of active ingredient) is 98%; in the data set with Pyrenophora teres (500 ppm of active ingredient), 95%; in the data set with Puccinia recondita (500 ppm of active ingredient), 95%; in the data set on Septoria tritici (500 ppm of active ingredient) it was 95%; with Sphaerotheca fuliginea (500 ppm of active ingredient), 100%; in the data set with Uromyces appendiculatus (500 ppm of active ingredient) it was 94%.
`Cn1nc(C(F)F)c(C(=O)N(Cc2cc(Cl)ccc2-c2cccs2)C2CC2)c1F` [I.68] returned a logP in data set [1] of 4.11. For the same compound, the Efficacy in the data set on Alternaria brassicae is 71%; in the data set on Puccinia recondita (500 ppm of active ingredient) it was 94%; with Septoria tritici (500 ppm of active ingredient), 83%; in the data set on Sphaerotheca fuliginea (500 ppm of active ingredient), 94%; with Uromyces appendiculatus (500 ppm of active ingredient), 100%.
The compound `Cn1cc(C(=O)N(Cc2ccccc2-c2cccs2)C2CC2)c(C(F)F)n1` [I.72] displayed a logP in data set [1] of 3.25. In addition, the Efficacy in the data set on Alternaria brassicae is 70%; in the data set with Septoria tritici (500 ppm of active ingredient) it was 80%; in the data set with Sphaerotheca fuliginea (500 ppm of active ingredient), 90%; with Uromyces appendiculatus (500 ppm of active ingredient), 83%.

Source of the values: patent US10125126B2, “N-cycloalkyl-N-[(heterocyclylphenyl)methylene]-(thio)carboxamide derivatives” (BAYER CROPSCIENCE AG, priority 2012, dated 2018).
